From patent US7230139B2, “Diterpenoid compounds, compositions thereof and their use as anti-cancer or anti-fungal agents” (priority 2004, dated 2007)

Columns and labels:
[1] = system: C33A human cervical cancer cells; experiment: C33A cervical tumor xenograft in SCID mice; type: in vivo, CB17 SCID/SCID female mice; details: for Tumor growth compared to vehicle: two-way ANOVA
Description: The resultant mice are a model for a human having cervical cancer.
(§1) The C33A human cervical cancer cells were maintained in RPMI supplemented with 10% inactivated fetal bovine serum and 1% penicillin-streptomycin-L-Glutamine, under 5% CO2 at 37° C., and passaged twice a week. The cells were grown at a confluency lower than 70% and then collected with Trypsin (Bio-Whittaker, Md., USA). The cells were then centrifuged and washed twice using phosphate buffered saline solution (PBS) and resuspended in PBS at 2×10^6 cells per 100 μl. Viability was examined by staining with Trypan Blue and only flasks with cell viability of greater than 95% were used for in vivo studies.
C33A cells were transplanted subcutaneously into the flank of female CB17 SCID/SCID mice. Each mouse was inoculated with a suspension of 2×10^6 tumor cells per 100 μL on day zero. The following six treatment groups of ten mice each were used: (a) a negative control group treated with intravenous (i.v.) injection of vehicle, (b) a negative control group treated with intraperitoneal (i.p.) injection of vehicle, (c) a positive control group treated with i.p. injection of Cisplatin, (d) a group treated with i.v. injection of a Compound 50, (e) a group treated with i.p. injection of Compound 50, and (f) a group treated with subcutaneous (s.c.) injection of Compound 50.
Treatment started on day thirteen after C33A cells transplantation for Compound 50 treated groups and on day fourteen for Cisplatin treated group. Compound 50 was administered i.v., i.p., and s.c. once daily for five consecutive days at a dose of 10, 15 and 30 mg/kg, respectively. Compound 50 was prepared as a working solution of 1.5 mg/mL in a vehicle solution of 20% Cremaphor EL (Sigma, St. Louis, Mo., USA), 10% Ethanol and 5% Dextrose (Abbot Laboratories, QC, Canada). The negative control groups were treated with vehicle alone. The positive control group was treated once every 3 days for fifteen days at a dose of 3.5 mg/kg. Cisplatin was formulated in PBS on each day of the injection and was administered i.p.
The mice were weighed and the tumors measured on day 13 and every 2 to 3 days after treatment commenced. Observations continued for 36 days after initial tumor implantation. The changes in body weight and in the calculated tumor volume were plotted (FIGS. 4 and 5). Statistical analysis was performed using GraphPad Prism (GraphPad Software Inc., San Diego, Calif.). Two-way ANOVA was used to determine how the treatment affected tumor growth over time. Following the two-way ANOVA, post-tests were performed using the Benferroni method to determine the statistical difference between the mean tumor-size of the two groups being compared on every day that the tumors were measured. Four animals in the negative control injected i.v. with vehicle and two animals in the group treated i.v. with Compound 50 died during the observation period. Therefore, the data collected from these animals were excluded from all calculations and the total number of animals in the groups changed to six for the negative control injected i.v. with vehicle and eight for the group treated i.v. with Compound 50.

[2] = system: Candida albicans strain ATCC 10231; experiment: Fungus growth inhibition (OD600); type: cell-based; details: dilution series, YEP glucose, 30° C.; dose-dependent
Description: Fungus cells were first cultured overnight in 10 mL of YEP glucose-containing medium at 30° C. The following day, 5 μL of the overnight culture (5–6×10^3 cells) was added to 100 μL of YEP glucose-containing medium in a 96-well microtitre plate. To these cultures a dilution series of Compound 50 was added. Compound 50 was prepared as a stock solution in 100% dimethyl sulfoxide (DMSO) at a concentration of 10 mM. Serial dilutions were prepared in distilled water. The final DMSO concentration in each well was 0.5%. Fungus cells were grown at 30° C. and cell growth was monitored by reading the OD600 (optical density at 600 nm) with a Tecan Ultra plate reader (TECAN U.S. Inc. Research Triangle Park, N.C., USA). […] Accordingly, Compound 50, an illustrative Diterpenoid Compound, is useful for inhibiting the growth of a fungus or treating a fungal infection.

[3] = system: SW480 human colon carcinoma cancer cells; experiment: SW480 colon carcinoma xenograft in SCID mice; type: in vivo, CB17 SCID/SCID female mice; details: i.v. 10 mg/kg once a day for five days
Description: The resultant mice are a model for a human having colon carcinoma cancer.
as §1, with “SW480” for “C33A”, “colon carcinoma” for “cervical”, “1×10^6” for “2×10^6”
(§2) SW480 cells were transplanted subcutaneously into the flank of female CB 17 SCID/SCID mice. Each mouse was inoculated with a suspension of 1×10^6 tumor cells per 100 μL on day zero. The following five treatment groups of ten mice each were used: (a) a negative control group treated with intravenous (i.v.) injection of vehicle, (b) a group treated with i.v. injection of a Compound 50, (c) a group treated with i.v. injection of a Compound 50a, (d) a group treated with i.v. injection of Compound 50b, (e) a group treated with i.v. injection of Compound 74a.
(§3) Treatment started on day twelve after SW480 cells transplantation and Compounds 50, 50a, 50b and 74a were administered i.v. once daily for five consecutive days at a dose of 10, 10, 10 and 50 mg/kg, respectively. Compound 50, 50a and 50b were prepared as a working solution of 1.5 mg/mL in a vehicle solution of 20% Cremaphor EL (Sigma, St. Louis, Miss., USA), and 10% Ethanol. Compound 74a was prepared as a working solution of 5 mg/mL in a vehicle solution of 5% Dextrose (Abbot Laboratories, QC, Canada). The negative control groups were treated with vehicle solution of 20% Cremaphor EL and 10% Ethanol alone.
(§4) The mice were weighed and the tumors measured on day 12 and every 2 to 3 days after treatment commenced. Observations continued for 23 days after initial tumor implantation. The changes in body weight and in the calculated tumor volume were plotted (FIGS. 9 and 10). Statistical analysis was performed using GraphPad Prism (GraphPad Software Inc., San Diego, Calif.). Two-way ANOVA was used to determine how the treatment affected tumor growth over time. Following the two-way ANOVA, post-tests were performed using the Benferroni method to determine the statistical difference between the mean tumor-size of the two groups being compared on every day that the tumors were measured.

[4] = Body weight of SW480 tumor-bearing mice; type: in vivo, CB17 SCID/SCID female mice; details: i.v. once daily for five days; 10 mg/kg (50, 50a, 50b), 50 mg/kg (74a)
Description: as §2, §3, §4

Which results are given for `COc1ccc2c(c1)C1(C)C=CC(=O)C(C)(C)C1=C(O)C2=O` (racemic) [Compound 50]?
Tumor growth compared to vehicle ([1]; i.p. 15 mg/kg once a day for five days): significant reduction (p<0.001); Mean tumor-size compared to vehicle ([1]; i.p., day 34 and day 36): significantly (p<0.05) smaller mean tumor-size; Tumor growth compared to vehicle ([1]; i.v. 10 mg/kg once a day for five days): significant reduction (p<0.001); Mean tumor-size compared to vehicle ([1]; i.v. 10 mg/kg, day 36): significantly (p<0.05) smaller mean tumor-size; Tumor growth compared to vehicle ([1]; s.c. 30 mg/kg once a day for five days): significant reduction (p<0.001); Mean tumor-size compared to vehicle ([1]; s.c., day 34 (p<0.01) and day 36 (p<0.001)): significantly smaller mean tumor-size; Growth of Candida albicans [2]: significantly inhibited growth; Tumor growth compared to vehicle [3]: significant reduction (p<0.001); Change in body weight [4]: non-significant change in body weight
